Assay results taken from patent publication US6620911B1, “Anti-cryptococcal peptides” (Arizona Board of Regents, acting for and on behalf of …, priority 1998, dated 2003).

Experiments:
Assay type in all cases: cell-based
Cryptococcus neoformans [1] = assay: Broth macrodilution assay (MIC, MFC), ATCC strains; settings: C. neoformans #14116
Experimental: Dolastatin 10 and modifications were screened against yeasts by the broth macrodilution assay according to the NCCLS (National Committee for Clinical Laboratory Standards, Reference Method for Broth Dilution Antifungal Susceptibility Testing of Yeasts: Approved Standard M27-A, NCCLS, Wayne, Pa., 1997). Yeasts were suspended and diluted as recommended to yield final inocula ranging from 0.5-2.5×10^3 colony forming units (CFU)/ml. Tests were performed in sterile 12×75 mm plastic tubes containing two-fold dilutions of the peptides in 0.165 M morpholinepropanesulfonic acid (MOPS)-buffered RPMI 1640 medium (pH 7.0). One tube was left drug-free for a turbidity control. Tubes were incubated without agitation at 35° C. (25° C. for C. albidus and C. laurentii). MICs were determined after 72 h for Cryptococcus, and after
48 h for other yeast genera. The MIC was defined as the lowest concentration of compound that inhibited all visible growth of the test organism.
Minimum fungicidal concentrations (MFCs) were determined by subculturing 0.1 ml from each tube with no visible growth in the MIC broth macrodilution series onto drug-free SDA plates. The plates were incubated at 35° C. for 48 h for Cryptococcus (25° C. for C. alhidus and C. laurentii), and 35° C. for 24 h for all other yeast and filamentous fungi.

Candida glabrata = assay: Disk diffusion susceptibility testing; settings: ATCC 90030
Experimental: (§1) Antimicrobial activity was assayed by disk susceptibility tests according to the NCCLS (National Committee for Clinical Laboratory Standards, Performance Standards for Antimicrobial Disk Susceptibility Tests-Sixth Edition: Approved standard M2-A6, NCCLS, Wayne, Pa., 1997). Inocula were adjusted to a density of 0.10 at 625 nm in SDA broth, and spread on SDA plates. Excess moisture was allowed to absorb for 10 min before applying dried disks containing two-fold dilutions of the drugs. Test plates were incubated at 35° C. (25° C. for C. albidus and C. laurentii), and zones of inhibition recorded after 48 h. The minimum inhibitory concentration (MIC) was defined as the lowest concentration of drug resulting in a clear zone of growth inhibition. Disk susceptibility testing of Staphylococcus aureus, Enterococcus faecalis, Escherichia coli and Neisseria gonorrhoeae was also performed.

Cryptococcus laurentii = assay: Disk diffusion susceptibility testing; settings: ATCC 66036
Experimental: as §1

Candida albicans = assay: Disk diffusion susceptibility testing; settings: ATCC 90028
Experimental: as §1

Cryptococcus neoformans [2] = assay: Disk diffusion susceptibility testing; settings: ATCC 90112
Experimental: as §1

Cryptococcus albidus = assay: Disk diffusion susceptibility testing; settings: ATCC 66030
Experimental: as §1

Compound | MFC relative to MIC (Cryptococcus neoformans [1]) | MIC (Candida glabrata) | MIC (Cryptococcus laurentii) | MIC (Candida albicans) | MIC (Cryptococcus neoformans [2]) | MIC (Cryptococcus albidus)
CCC(C)C(C(CC(=O)N1CCC[C@H]1C(OC)C(C)C(=O)NC(Cc1ccccc1)C(=O)Nc1nnc(-c2ccccc2)s1)OC)N(C)C(=O)[C@@H](NC(=O)[C@H](C(C)C)N(C)C)C(C)C (stereo partly drawn) [1b] | sixteenfold greater than MICs | >100 μg/disk | >100 μg/disk | >100 μg/disk | 3.12-6.25 μg/disk | >100 μg/disk
CCC(C)C(C(CC(=O)N1CCC[C@H]1C(OC)C(C)C(=O)NC(Cc1ccccc1)C(=O)Nc1nc(SC)ns1)OC)N(C)C(=O)[C@@H](NC(=O)[C@H](C(C)C)N(C)C)C(C)C (stereo partly drawn) [1c] | sixteenfold greater than MICs | >100 μg/disk |  | >100 μg/disk | 1.56-3.12 μg/disk | 
CCC(C)C(C(CC(=O)N1CCC[C@H]1C(OC)C(C)C(=O)NC(CCSC)C(=O)Nc1cnc2ccccc2c1)OC)N(C)C(=O)[C@@H](NC(=O)[C@H](C(C)C)N(C)C)C(C)C (stereo partly drawn) [1e] |  |  |  | >100 μg/disk | 25-50 μg/disk | 
